Converted amounts (≈) assume the structure as drawn.
How the values were obtained:
Type in all cases: cell-based
Candida albicans SC5314 = assay: Fungal growth inhibition MIC (MFC); settings: for MIC: Candida albicans SC5314, RPMI-1640; for MFC: Candida albicans SC5314, value in brackets
Text: (§1) We subsequently assessed the carbazole series for antifungal activity, as described in Kjellerup et al., 2017.[15] Table 2, Table 3, Table 4, Table 5 list the minimum inhibitory concentrations (MIC) and the minimum fungicidal concentrations (MFC) of the fifteen compounds tested against the yeasts Saccharomyces cerevisiae, Candida albicans, C. krusei, and two isolates of C. glabrata (a wild-type strain ATCC 90030 and a clinical azole-resistant isolate Cg003 with increased efflux pump expression[19]), and the molds Aspergillus fumigatus and A. flavus. MIC was defined as the lowest concentration inhibiting visual growth of the microorganism in RPMI-1640 media. […] However, in several cases antifungal activity against molds was minimal, Table 5.
(§2) Compound hits from the library screening were evaluated against baker yeast S. cerevisiae and C. albicans (ATCC 90028). The minimum inhibitory concentration (MIC) was defined as the lowest concentration inhibiting visual growth of the microorganism and this was determined in triplicate. Standard errors were typically less than 5%. MICs for synthesized compounds were determined on the following fungal isolates: Saccharomyces cerevisiae (ATCC 9763), Candida albicans (SC5314), Candida krusei (ATCC 6258), Candida glabrata (ATCC 90030), Aspergillus flavus (ATCC MYA-1005) and Aspergillus fumigatus (ATCC 13073), which were purchased from American Type Culture Collection, and C. glabrata strain Cg003, which was kindly provided by Julius Subik, Comenius University in Bratislava, Slovak Republic. Cg003 is a clinical isolate, characterized to be resistant to fluconazole and itraconazole due to overexpression of the multidrug resistance efflux pumps Cdr1p and Cdr2p^5. The fungal growth assay was performed as described in Kjellerup et al., 2017^6.

[1] = system: Candida glabrata ATCC 90030; assay: Fungal growth inhibition MIC (MFC); settings: Nakaseomyces glabratus, ATCC90030, Candida glabrata ATCC 90030 (wild-type); for MIC: RPMI-1640; for MFC: value in brackets
Text: as §1, §2

Candida glabrata Cg003 = assay: Fungal growth inhibition MIC (MFC); settings: Nakaseomyces glabratus, Candida glabrata Cg003 (clinical azole-resistant isolate); for MIC: RPMI-1640; for MFC: value in brackets
Text: as §1, §2

Candida krusei ATCC 6258 = assay: Fungal growth inhibition MIC (MFC); settings: Pichia kudriavzevii, ATCC6258; for MIC: Candida krusei ATCC 6258, RPMI-1640; for MFC: Candida krusei ATCC 6258, value in brackets
Text: as §1, §2

[2] = system: Saccharomyces cerevisiae ATCC 9763; assay: Fungal growth inhibition MIC (MFC); settings: ATCC9763; for MIC: Saccharomyces cerevisiae ATCC 9763, RPMI-1640; for MFC: Saccharomyces cerevisiae ATCC 9763, value in brackets
Text: as §1, §2

[3] = system: Escherichia coli ATCC 25922; assay: Bacterial growth inhibition assay; settings: ATCC25922; Escherichia coli ATCC 25922, n=3
Text: (§3) To further support the notion that the carbazole H^+-ATPase inhibitors were specific inhibitors of fungal growth, we tested the effect of all fifteen compounds on the growth of two bacterial species; the gram-positive Staphylococcus aureus and the gram-negative Escherichia coli. […] Compound 16 and 17 were interesting as they were potent inhibitors of the ATP hydrolysis in the enzymatic assay and potent H^+-ATPase inhibitors in whole fungal cell assay (iATP and extracellular acidification).
(§4) The bacterial strains used in this study were purchased from DSMZ, Germany. Bacteria cells were grown in Mueller-Hinton broth (MHB) to mid-exponential phase and freeze stocks were prepared at 1-2 × 10^8 CFU/mL in MHB and 20% glycerol and stored at -20 °C. These stocks were used to inoculate bacterial growth assays at a final concentration of 5 × 10^5 CFU/mL in MHB together with 1.5 % DMSO or compound in a 96-well plate and incubated for 16-29 h at 35 °C, whereafter growth was determined by reading at OD600. Kanamycin and ampicillin were used as positive control compounds. Experiments were performed at least twice and standard errors were typically less than 5 %.

[4] = system: Staphylococcus aureus ATCC 29213; assay: Bacterial growth inhibition assay; settings: ATCC29213; Staphylococcus aureus ATCC 29213, n=3
Text: as §3, §4

Compound	MIC (Candida albicans SC5314)	MFC (Candida albicans SC5314)	MIC [1]	MFC [1]	MIC (Candida glabrata Cg003)	MFC (Candida glabrata Cg003)	MIC (Candida krusei ATCC 6258)	MFC (Candida krusei ATCC 6258)	MIC [2]	MFC [2]	MIC [3]	MIC [4]
OC(Cn1ccnc1)Cn1c2ccc(Cl)cc2c2cc(Cl)ccc21 (stereo not drawn) [Compound 5, 1-(3,6-dichloro-9H-carbazol-9-yl)-3-(1H-imidazol-1-yl)propan-2-ol]	24 µM (≈ 8.65 µg/mL)	> 75 µM	> 75 µM	> 75 µM	> 75 µM	> 75 µM	> 75 µM	> 75 µM	24 µM (≈ 8.65 µg/mL)	75 µM (≈ 27 µg/mL)	> 75 µM	7.5 µM (≈ 2.7 µg/mL)
OC(Cn1cncn1)Cn1c2ccc(Cl)cc2c2cc(Cl)ccc21 (stereo not drawn) [Compound 6, 1-(3,6-dichloro-9H-carbazol-9-yl)-3-(1H-1,2,4-triazol-1-yl)propan-2-ol]	75 µM (≈ 27.1 µg/mL)	> 75 µM	> 75 µM	> 75 µM	> 75 µM	> 75 µM	> 75 µM	> 75 µM	75 µM (≈ 27.1 µg/mL)	> 75 µM	> 75 µM	41 µM (≈ 14.8 µg/mL)
OC(CN1CCOCC1)Cn1c2ccc(Cl)cc2c2cc(Cl)ccc21 (stereo not drawn) [Compound 7, 1-(3,6-dichloro-9H-carbazol-9-yl)-3-morpholinopropan-2-ol]	75 µM (≈ 28.4 µg/mL)	75 µM (≈ 28.4 µg/mL)	> 75 µM	> 75 µM	> 75 µM	> 75 µM	> 75 µM	> 75 µM	24 µM (≈ 9.1 µg/mL)	24 µM (≈ 9.1 µg/mL)	> 75 µM	41 µM (≈ 15.6 µg/mL)
CN1CCN(CC(O)Cn2c3ccc(Cl)cc3c3cc(Cl)ccc32)CC1 (stereo not drawn) [Compound 8, 1-(3,6-dichloro-9H-carbazol-9-yl)-3-(4-methylpiperazin-1-yl)propan-2-ol]	68 µM (≈ 26.7 µg/mL)	75 µM (≈ 29.4 µg/mL)	42 µM (≈ 16.5 µg/mL)	75 µM (≈ 29.4 µg/mL)	58 µM (≈ 22.8 µg/mL)	75 µM (≈ 29.4 µg/mL)	75 µM (≈ 29.4 µg/mL)	> 75 µM	7.5 µM (≈ 2.94 µg/mL)	7.5 µM (≈ 2.94 µg/mL)	75 µM (≈ 29.4 µg/mL)	64 µM (≈ 25.1 µg/mL)
O=C(O)C1CCN(CC(O)Cn2c3ccc(Cl)cc3c3cc(Cl)ccc32)CC1 (stereo not drawn) [Compound 9, 1-(3-(3,6-dichloro-9H-carbazol-9-yl)-2-hydroxypropyl)piperidine-4-carboxylic acid]	> 75 µM	> 75 µM	> 75 µM	> 75 µM	> 75 µM	> 75 µM	> 75 µM	> 75 µM	> 75 µM	> 75 µM	> 75 µM	75 µM (≈ 31.6 µg/mL)
CCC(C)NCC(O)Cn1c2ccc(Cl)cc2c2cc(Cl)ccc21 (stereo not drawn) [Compound 10, 1-(sec-butylamino)-3-(3,6-dichloro-9H-carbazol-9-yl)propan-2-ol]	3.7 µM (≈ 1.35 µg/mL)	3.8 µM (≈ 1.39 µg/mL)	1.2 µM (≈ 0.438 µg/mL)	3.8 µM (≈ 1.39 µg/mL)	5.6 µM (≈ 2.05 µg/mL)	7.9 µM (≈ 2.89 µg/mL)	2.9 µM (≈ 1.06 µg/mL)	3.8 µM (≈ 1.39 µg/mL)	0.4 µM (≈ 0.146 µg/mL)	1.2 µM (≈ 0.438 µg/mL)	20 µM (≈ 7.31 µg/mL)	2.9 µM (≈ 1.06 µg/mL)

Source: paper PMC5609566, “Elucidation of antimicrobial activity and mechanism of action by N-substituted carbazole derivatives” (Bioorganic & Medicinal Chemistry Letters, 2017)
